The source of these data is US8420336B2, “Method of bioassaying yokukansan” (priority 2008, dated 2013).

The target of one assay is kainate receptors. The experiment in a line: Binding test for test drug to kainate receptors ([3H]kainic acid competition). To be noted: labeled ligand of the assay; listed among the conditions. More on the design: species or system Wistar rat. How it is done: (§1) 20 mg of a test drug (TJ-54 or an extract of the constituent crude drug) was weighed. Distilled water was added to the test drug so as to give a concentration of 20 mg/125 μL (20 mg/100 μL for the extract of the constituent crude drug), and further the resulting solution was diluted to 2-fold with DMSO, which was used as a stock solution. This stock solution was diluted to have each concentration.
(3) Binding Test for Test Drug to Kainate Receptors
20 mL/g of 50 mM Tris-HCl buffer was added to the brain tissue excluding the cerebellum tissue collected from a Wistar rat. The resulting mixture was homogenized, and centrifugation (48,000×g for 15 minutes at 4° C.) of the homogenate was repeated three times to obtain a membrane fraction. […]
Then, the radioactivity of [^3H]kainic acid on the glass fiber filter was measured using a liquid scintillation counter (Wallac Counter, Perkin Elmer). As for the nonspecific binding, the radioactivity of [^3H]kainic acid in the presence of 1000 μM unlabeled L-glutamate was measured. As for the total binding, the radioactivity of [^3H]kainic acid in the absence of the test drug was measured. The binding activity of the test drug was evaluated on the basis of the binding inhibition ratio obtained from the above formula. […]

Assay [1] deals with T1, glycine binding site of NMDA receptors (Rattus norvegicus, UniProt P35439).
T1 construct: cerebral cortex tissue collected from a Wistar rat; from tissue; host or cells: cerebral cortex of Wistar rat, membrane fraction
The experiment in a line: Binding test for test drug to glycine binding site of NMDA receptors ([3H]MDL-105519 competition). The following applies: labeled ligand of the assay; listed among the conditions. Also on record: species or system Wistar rat.
Protocol: 20 mL/g of 50 mM HEPES buffer was added to the cerebral cortex tissue collected from a Wistar rat. The resulting mixture was homogenized, and the homogenate was centrifuged (1,000×g for 10 minutes at 4° C.). Then, the resulting supernatant was collected and centrifuged (20,000×g for 20 minutes at 4° C.) to obtain a pellet. The pellet was resuspended in a buffer and the suspension was centrifuged (8,000×g for 20 minutes at 4° C.). Further, the resulting supernatant was collected and centrifuged (48,000×g for 20 minutes at 4° C.) to obtain a pellet. […]
After completion of the incubation, the mixture was filtered through a glass fiber filter (Whatman 1821-915 GF/B, Whatman) using a cell harvester (Brandel MLR-48, Skatron micro-96, Perkin Elmer), and the filter was washed 3 to 6 times with 50 mM HEPES buffer. Then, the radioactivity of [^3H]MDL-105519 on the glass fiber filter was measured using a liquid scintillation counter (Wallac Counter, Perkin Elmer). As for the nonspecific binding, the radioactivity of [^3H]MDL-105519 in the presence of 10 μM unlabeled MDL-105519 was measured. As for the total binding, the radioactivity of [^3H]MDL-105519 in the absence of the test drug was measured. The binding activity of the test drug was evaluated on the basis of the binding inhibition ratio obtained from the above formula. […]

The target of another assay is glutamate receptors. The experiment in a line: Non-selective binding test for test drug to glutamate receptors ([3H]L-glutamate competition). Also on record: species or system Wistar rat. The following applies: labeled ligand of the assay; listed among the conditions of the experiment. Here is the method:
as §1
(1) Non-Selective Binding Test for Test Drug to Glutamate Receptors
20 mL/g of 50 mM Tris-HCl buffer was added to the brain tissue collected from a Wistar rat. […]
(§2) After completion of the incubation, the mixture was filtered through a glass fiber filter (Whatman 1821-915 GF/B, Whatman) using a cell harvester (Brandel MLR-48, Skatron micro-96, Perkin Elmer), and the filter was washed 3 to 6 times with 50 mM Tris-HCl buffer. Then, the radioactivity of [^3H]L-glutamate on the glass fiber filter was measured using a liquid scintillation counter (Wallac Counter, Perkin Elmer). As for the nonspecific binding, the radioactivity of [^3H]L-glutamate in the presence of 50 μM unlabeled L-glutamate was measured. As for the total binding, the radioactivity of [^3H]L-glutamate in the absence of the test drug was measured. The binding activity of the test drug was calculated from the following binding inhibition ratio (%). […]

Assay [2] concerns the target glutamate binding site of NMDA receptors. The assay is described as follows: Binding test for test drug to glutamate binding site of NMDA receptors ([3H]CGP-39653 competition). More on the design: species or system Wistar rat. The following applies: labeled ligand of the assay; listed among the conditions. How it is done:
as §1
(4) Binding Test for Test Drug to Glutamate Binding Site of NMDA Receptors
20 mL/g of 50 mM Tris-HCl buffer was added to the cerebral cortex tissue collected from a Wistar rat. The resulting mixture was homogenized, and the homogenate was centrifuged (1,000×g for 10 minutes at 4° C.). […]
as §2, with “of [^3H]CGP-39653” for “of [^3H]L-glutamate”, “of 1000” for “of 50”, “measured.” for “measured. The binding activity of the test drug was calculated from the following binding inhibition ratio (%).”

The target of a further assay is T2, human recombinant mGluR5 (Homo sapiens, UniProt P41594).
T2 construct: purchased Perkin Elmer; host or cells: CHO-K1 cell membranes
The assay is described as follows: Binding test for test drug to metabotropic glutamate receptor mGluR5 ([3H]quisqualic acid competition). The following applies: labeled ligand of the assay; listed among the conditions.

Another assay has as its target AMPA receptors. The assay is described as follows: Binding test for test drug to AMPA receptors ([3H]AMPA competition). Also on record: species or system Wistar rat. The following applies: labeled ligand of the assay, listed among the conditions. How it is done: as §1
(2) Binding Test for Test Drug to AMPA Receptors
20 mL/g of 50 mM Tris-HCl buffer (containing 200 mM KSCN) was added to the cerebral cortex tissue collected from a Wistar rat. […]
as §2, with “of [^3H]AMPA” for “of [^3H]L-glutamate”, “of 1000” for “of 50”, “was evaluated on” for “was calculated from”, “the basis of the” for “the following”, “ratio obtained from the above formula.” for “ratio (%).”

Each structure is given as a SMILES string. Where two headings read alike, the source gives them in different places.

T2 sequence (P41594 21-1212): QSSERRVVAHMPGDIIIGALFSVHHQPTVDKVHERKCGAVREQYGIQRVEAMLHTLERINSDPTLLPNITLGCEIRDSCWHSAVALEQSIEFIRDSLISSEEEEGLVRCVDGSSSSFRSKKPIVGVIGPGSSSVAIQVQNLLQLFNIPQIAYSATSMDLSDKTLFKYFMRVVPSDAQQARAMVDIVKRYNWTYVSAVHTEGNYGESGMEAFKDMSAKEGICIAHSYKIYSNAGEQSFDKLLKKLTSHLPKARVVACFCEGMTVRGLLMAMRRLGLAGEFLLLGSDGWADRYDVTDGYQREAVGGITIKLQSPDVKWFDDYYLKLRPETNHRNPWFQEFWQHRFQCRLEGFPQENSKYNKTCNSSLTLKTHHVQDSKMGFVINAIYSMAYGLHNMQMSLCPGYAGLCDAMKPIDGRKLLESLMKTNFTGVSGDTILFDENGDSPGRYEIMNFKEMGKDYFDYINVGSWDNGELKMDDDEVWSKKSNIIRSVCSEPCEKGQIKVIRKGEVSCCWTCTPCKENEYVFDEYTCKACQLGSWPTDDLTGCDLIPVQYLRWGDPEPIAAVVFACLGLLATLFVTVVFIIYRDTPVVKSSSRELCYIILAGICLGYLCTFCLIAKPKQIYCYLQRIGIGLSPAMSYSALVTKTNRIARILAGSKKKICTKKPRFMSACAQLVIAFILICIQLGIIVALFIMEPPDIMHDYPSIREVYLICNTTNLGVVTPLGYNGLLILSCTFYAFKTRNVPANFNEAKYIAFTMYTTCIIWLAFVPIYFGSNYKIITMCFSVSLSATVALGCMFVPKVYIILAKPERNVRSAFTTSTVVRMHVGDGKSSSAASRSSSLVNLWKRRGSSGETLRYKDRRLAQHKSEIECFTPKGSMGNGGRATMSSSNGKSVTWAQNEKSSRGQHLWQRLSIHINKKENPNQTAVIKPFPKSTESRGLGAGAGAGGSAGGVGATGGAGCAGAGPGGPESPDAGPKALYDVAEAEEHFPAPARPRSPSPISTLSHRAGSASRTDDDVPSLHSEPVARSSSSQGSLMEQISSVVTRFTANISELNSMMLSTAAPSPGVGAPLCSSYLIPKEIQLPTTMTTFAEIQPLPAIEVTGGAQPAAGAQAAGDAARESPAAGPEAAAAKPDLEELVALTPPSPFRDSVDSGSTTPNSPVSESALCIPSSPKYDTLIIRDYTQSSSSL
Protocol for human recombinant mGluR5: (6) Binding Test for Test Drug to Metabotropic Glutamate Receptor mGluR5
30 μg protein/100 μL of a CHO-K1 cell membrane solution, 20 μL of [^3H]quisqualic acid (final concentration: 0.03 μM) and 1.1 μL of the test drug solution of each concentration were added to a 1 mL tube, and the resulting mixture was incubated at 25° C. for 2 hours. In the control group, a DMSO solution (final concentration: 0.5%) was added, and the resulting mixture was incubated in the same manner.
After completion of the incubation, the mixture was filtered through a glass fiber filter (Whatman 1821-915 GF/B, Whatman) using a cell harvester (Micro 96 FilterMate, Perkin Elmer), and the filter was washed 6 times with 20 mM HEPES buffer. Then, the radioactivity of [^3H]quisqualic acid on the glass fiber filter was measured using a liquid scintillation counter (Wallac Counter). As for the nonspecific binding, the radioactivity of [^3H]quisqualic acid in the presence of 1000 μM unlabeled L-glutamate was measured. As for the total binding, the radioactivity of [^3H]quisqualic acid in the absence of the test drug was measured. The binding activity of the test drug was evaluated on the basis of the binding inhibition ratio obtained from the above formula.
The respective conditions in this experiment are as follows. […]

Broadly, the Kd is the concentration at which binding is half-saturated. For the molecule `C=C(C)[C@H]1CN[C@H](C(=O)O)[C@H]1CC(=O)O` [[^3H]kainic acid, kainic acid], the affinity on kainate receptors, expressed as Kd, was 12 nM.

As for `O=C(O)C(=Cc1c(C(=O)O)[nH]c2cc(Cl)cc(Cl)c12)c1ccccc1` [[^3H]MDL-105519], the Kd in assay [1] was found to be 6 nM.

Regarding `N[C@@H](CCC(=O)O)C(=O)O` [[^3H]L-glutamate, L-glutamate], binding at glutamate receptors was put at a Kd of 293 nM.

`CCCC(=CC(N)C(=O)O)CP(=O)(O)O` (stereo not shown) [[^3H]CGP-39653] came in with a Kd in assay [2] of 19 nM.

Regarding `N[C@@H](Cn1oc(=O)[nH]c1=O)C(=O)O` [[^3H]quisqualic acid, quisqualic acid], the Kd at human recombinant mGluR5 amounted to 26 nM.

As for `Cc1onc(O)c1CC(N)C(=O)O` (stereo not drawn) [[^3H]AMPA, α-amino-3-hydroxy-5-methyl-4-isoxazolepropionate], the Kd on AMPA receptors (Kd1, read-out: Kd (Kd1)) is 18 nM; on AMPA receptors (Kd2, read-out: Kd (Kd2)), 990 nM.
